Measurements from patent US4368194A, “Pharmacologically active amine boranes” (The United States of America as represented by the …, priority 1981, dated 1983).

Columns and labels:
[1] = target: T1, prostaglandin synthetase from beef seminal vesicle (Bos taurus, UniProt O62664); assay: Prostaglandin synthetase activity; assay type: biochemical; details: 10^-6 M; for inhibition at 1 µM: read-out: inhibition of prostaglandin synthesis; for activity at 1 µM: 1 h, read-out: Prostaglandin Synthesis
T1 construct: purchased; host or cells: beef seminal vesicle
T1 sequence (O62664 25-600): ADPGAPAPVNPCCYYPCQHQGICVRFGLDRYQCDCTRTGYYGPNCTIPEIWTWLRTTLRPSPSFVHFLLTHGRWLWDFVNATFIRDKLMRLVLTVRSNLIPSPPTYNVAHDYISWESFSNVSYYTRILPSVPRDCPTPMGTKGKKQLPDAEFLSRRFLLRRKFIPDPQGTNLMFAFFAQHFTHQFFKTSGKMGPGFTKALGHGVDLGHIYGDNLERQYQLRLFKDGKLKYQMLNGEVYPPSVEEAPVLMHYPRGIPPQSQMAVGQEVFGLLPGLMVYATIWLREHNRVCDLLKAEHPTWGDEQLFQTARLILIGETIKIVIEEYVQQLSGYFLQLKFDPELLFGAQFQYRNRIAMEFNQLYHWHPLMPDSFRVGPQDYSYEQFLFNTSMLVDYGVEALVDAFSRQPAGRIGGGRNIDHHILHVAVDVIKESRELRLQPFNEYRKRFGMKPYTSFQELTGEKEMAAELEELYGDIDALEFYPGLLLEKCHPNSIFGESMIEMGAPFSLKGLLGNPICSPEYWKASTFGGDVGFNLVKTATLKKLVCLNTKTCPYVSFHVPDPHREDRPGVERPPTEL
Description: After 1 hr at 37° C. the reaction was stopped with 1 N HCl and extracted with ethyl ether and evaporated. […] The plates were dried and developed in iodine vapor and with the use of prostaglandin standards the appropriate areas were scraped and counted for ^3 H content. Indometacin was used as a standard at 10^-4 M concentration. Test drugs were used at 10^-6 M.

Cathepsin [2] = assay: Lysosomal free cathepsin activity, liver homogenate; assay type: biochemical, rats; details: 5 μmoles; for Liver % Free Cathepsin Activity, pH5: in vitro, 20 min
Description: (§1) Lysosomal enzymatic assays - Sprague Dawley rats (about 160 g) were sacrificed, the liver excised, and a 10% homogenate (4x) in 0.25 M sucrose and 0.001 M (ethylenedinitrilo) tetra acetic acid, ph 7.2 was prepared.
(§2) Acid phosphatase activity (Gianetto et al., Biochem J., 59, 433 1955) was carried out by incubating with 0.1 Mβ-glycerol phosphate in 0.1 M acetate, pH 5.0 with 5 μmoles of test drugs in 1% carboxymethylcellulose (CMC) for 20 min with liver homogenate and 60 min with resuspended PMNs. Lysosome enzymes were released by 0.02% alkyl phenoxy polyethoxy ethanol-100 to obtain the total enzymatic activity. The reaction was stopped with 10% trichloroacetic acid and the solution centrifuged. Aliquots of the supernatant were assayed for inorganic phophate content by the method of Chen et al., Anal Chem., 28, 1756 (1956). Percent free acid phosphatase was calculated. Cathepsin activity was determined in an analagous manner except the substrate used was 2% azocasein (Schleuning et al., Methods in Enzymology, XLV, 330 1976) in 0.1 M acetate buffer pH 5.0. The supernatant was assayed for acid soluble peptide fragments at 366 nm. Percent free cathepsin activity was calculated.

liver mitochondria [3] = assay: Oxidative phosphorylation, succinate as substrate; assay type: biochemical, rats; details: 5 μmoles; for Oxidative Phosphorylation Succinate State 3: ADP stimulated respiration; for Oxidative Phosphorylation Succinate State 4: basal respiration
Description: (§3) Basal and adenosine diphosphate stimulated respiration on 10% liver homogenates was measured using succinate or αketoglutarate as substrate. See Glatt, et al., supra. The reaction vessel contained sucrose 55μ moles, KCl 22μ moles, K2 HPO4 22μ moles, test compounds at 5μ moles in 1% CMC and sodium succinate 90μ moles or αketoglutarate 60μ moles in a total volume of 1.8 ml. […] The rate of respiration was calculated at μl of O2 consumed/hr/mg wet weight of liver.

Acid phosphatase [4] = assay: Lysosomal free acid phosphatase activity, PMNs; assay type: cell-based; details: 5 μmoles, in vitro; 60 min
Description: (§4) Polymorphonuclear neutrophils (PMNs) were collected from the peritoneal cavity four hr after the injection of 35 ml of 0.5% oyster glycogen in isotonic saline (Orange et al., J. Exp. Med., 127, 767 1968). The PMNs were centrifuged down at 800 g for 20 min, washed, and resuspended in minumen essential medium (MEM) with 10% fetal calf serum pH 7.4.
as §2

CF1 male mice = assay: Writhing reflex (acetic acid); assay type: in vivo; details: 20 mg/kg intraperitoneally, mice
Description: CF1 male mice were administered test drugs at 20 mg/kg intraperitoneally 20 min (see Hendershat et al., J. Pharmacol Exp. Ther. 125, 237 1959) prior to the administration of 0.5 ml of 0.6% acetic acid (Vingar et al., European J. PHarmacol, 37, 23 1976). After 5 min the number of stretches, characterized by repeated contractures of the abdominal musculature accompanied by extension of the hind limbs, was counted for the next 10 min. The control mice had 78 stretch reflexes per 10 min.

cAMP levels in PMNs = assay: Cyclic-3',5'-adenosine monophosphate levels (cAMP) in PMNs; assay type: cell-based; details: 1 h, 5 μmoles; for activity at 5 µmol: pH 7.4, in vitro, read-out: PMNs cAMP Level; for activation at 5 µmol: in vitro incubation, read-out: increase of cyclic adenosine monophosphate levels in PMNs
Description: as §4
Isolated PMNs were incubated with test drugs at 5μ moles for 1 hr at 37° C. in MEM at pH 7.4. The reaction was stopped with 6% trichloroacetic acid. The cyclic-3',5'-adenosine monophosphate levels were determined by the radioimmunoassay of Gilman, Proc. Natl. Acad. Sci. (USA), 67, 305 (1970), using 3H(G)-cyclic-3',5'-adenosine monophosphate (39.8 Cu/m mol). Results were calculated in p mole/10^7 PMNs cells.

Acid phosphatase [5] = assay: Lysosomal free acid phosphatase activity, liver homogenate; assay type: biochemical, rats; details: 5 μmoles, in vitro; 20 min
Description: as §1, §2

liver mitochondria [6] = assay: Oxidative phosphorylation, α-ketoglutarate as substrate; assay type: biochemical, rats; details: 5 μmoles; for Oxidative Phosphorylation α Ketoglutarate State 3: ADP stimulated respiration; for Oxidative Phosphorylation α Ketoglutarate State 4: basal respiration
Description: as §3

in vivo = details: mouse
Cathepsin [7] = assay: Lysosomal free cathepsin activity, PMNs; assay type: cell-based; details: 5 μmoles, in vitro; 60 min
Description: as §4, §2

[8] = test system: carrageenan induced edema in mouse foot pads; assay: Anti-inflammatory screen (carrageenan induced foot edema); assay type: in vivo, mice; details: for Anti-inflammatory Screen: 10 mg/kg × 2 intraperitoneally, mice
Description: CF1 male mice (about 30 g) were administered test drugs at 10 mg/kg in 0.05% polysorbate .80-water intraperitoneally 3 hr and 30 min prior to 0.05 ml of 2% carrageenan in 0.9% saline injected into the plantar surface of the right hind foot. Saline injected into the left hind foot served as a base line. After 3 hr, both feet were excised at the tibiotarsal (ankle) joint according to the modified (Roszkowski et al., J. Pharm. Exp. Ther., 179, 114 1971) method of Winter, resulting in an 87 mg net increase in the weight of the control animals' feet.

| Structure (SMILES) | inhibition at 1 µM [1] [%] | activity at 1 µM [1] [%] | inhibition of free proteolytic cathepsin activity of liver (Cathepsin [2]) | Liver % Free Cathepsin Activity, pH5 (Cathepsin [2]) [% Control] | Oxidative Phosphorylation Succinate State 3 (liver mitochondria [3]) [% Control] | Oxidative Phosphorylation Succinate State 4 (liver mitochondria [3]) [% Control] | PMNs % Free Acid Phosphatase Activity, pH5 (Acid phosphatase [4]) [% Control] | Writhing Reflex (CF1 male mice) [% Control] | activity at 5 µmol (cAMP levels in PMNs) [%] | activation at 5 µmol (cAMP levels in PMNs) [%] | Liver % Free Acid Phosphatase Activity, pH5 (Acid phosphatase [5]) [% Control] | Oxidative Phosphorylation α Ketoglutarate State 3 (liver mitochondria [6]) [% Control] | Oxidative Phosphorylation α Ketoglutarate State 4 (liver mitochondria [6]) [% Control] | LD50 (in vivo) [mg/kg] | PMNs % Free Cathespin Activity, pH5 (Cathepsin [7]) [% Control] | Anti-inflammatory Screen [8] [% Control] | both states 3 and 4 respiration with succinate (liver mitochondria [3]) | uncoupling with α-ketoglutarate as substrate (liver mitochondria [6]) | inhibition of the carrageenan induced edema in mouse foot pads ([8]; text summary of Table II) |
| --- | --- | --- | --- | --- | --- | --- | --- | --- | --- | --- | --- | --- | --- | --- | --- | --- | --- | --- | --- |
| C[N+](C)(C)[BH2-]I [IX, (CH3)3 N.BH 2 I] | > 30 | 67 ± 5 | at least 75% | 14 ± 3 | 63 ± 9 | 120 ± 12 | 71 ± 5 | 37 | 133 | 33 | 71 ± 6 | 70 ± 13 | 102 ± 16 | 250 | 40 ± 4 | 66 | – | – | – |
| C[N+](C)([BH2-]C(=O)O)CC[N+](C)(C)[BH2-]C(=O)O [XII, N,N,N^1,N^1 -Tetramethylethylenediamine-bis(carboxyborane)] | > 30 | 60 ± 6 | at least 75% | 23 ± 6 | 57 ± 16 | 80 ± 11 | 84 ± 4 | 54 | 155 | 55 | 69 ± 5 | 48 ± 30 | 122 ± 15 | > 1000 | 52 ± 4 | 58 | inhibited | uncoupling | at least 40% |
| CCNC(=O)[BH2-][N+](C)(C)CC[N+](C)(C)[BH2-]C(=O)NCC [XIII, N,N,N^1,N^1 -Tetramethylethylenediamine-bis(N-ethylamidoborane)] | – | 100 ± 4 | – | – | 66 ± 8 | 117 ± 8 | 100 ± 7 | 55 | 92 | – | 74 ± 4 | 50 ± 24 | 162 ± 43 | > 1000 | 70 ± 6 | 65 | – | uncoupling | – |
